In ChEMBL document CHEMBL1201862, “PubChem BioAssay data set” (2004) one finds IC50, AC50 and EC50 data, which are given here for three compounds.

Test [1] has as its target T1, Sentrin-specific protease 7 (Homo sapiens, UniProt Q9BQF6).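 Further: Luminescence-based dose-response confirmation of ultra-high-throughput screening hits, measuring inhibition of SENP7.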
T1 sequence (Q9BQF6 whole entry): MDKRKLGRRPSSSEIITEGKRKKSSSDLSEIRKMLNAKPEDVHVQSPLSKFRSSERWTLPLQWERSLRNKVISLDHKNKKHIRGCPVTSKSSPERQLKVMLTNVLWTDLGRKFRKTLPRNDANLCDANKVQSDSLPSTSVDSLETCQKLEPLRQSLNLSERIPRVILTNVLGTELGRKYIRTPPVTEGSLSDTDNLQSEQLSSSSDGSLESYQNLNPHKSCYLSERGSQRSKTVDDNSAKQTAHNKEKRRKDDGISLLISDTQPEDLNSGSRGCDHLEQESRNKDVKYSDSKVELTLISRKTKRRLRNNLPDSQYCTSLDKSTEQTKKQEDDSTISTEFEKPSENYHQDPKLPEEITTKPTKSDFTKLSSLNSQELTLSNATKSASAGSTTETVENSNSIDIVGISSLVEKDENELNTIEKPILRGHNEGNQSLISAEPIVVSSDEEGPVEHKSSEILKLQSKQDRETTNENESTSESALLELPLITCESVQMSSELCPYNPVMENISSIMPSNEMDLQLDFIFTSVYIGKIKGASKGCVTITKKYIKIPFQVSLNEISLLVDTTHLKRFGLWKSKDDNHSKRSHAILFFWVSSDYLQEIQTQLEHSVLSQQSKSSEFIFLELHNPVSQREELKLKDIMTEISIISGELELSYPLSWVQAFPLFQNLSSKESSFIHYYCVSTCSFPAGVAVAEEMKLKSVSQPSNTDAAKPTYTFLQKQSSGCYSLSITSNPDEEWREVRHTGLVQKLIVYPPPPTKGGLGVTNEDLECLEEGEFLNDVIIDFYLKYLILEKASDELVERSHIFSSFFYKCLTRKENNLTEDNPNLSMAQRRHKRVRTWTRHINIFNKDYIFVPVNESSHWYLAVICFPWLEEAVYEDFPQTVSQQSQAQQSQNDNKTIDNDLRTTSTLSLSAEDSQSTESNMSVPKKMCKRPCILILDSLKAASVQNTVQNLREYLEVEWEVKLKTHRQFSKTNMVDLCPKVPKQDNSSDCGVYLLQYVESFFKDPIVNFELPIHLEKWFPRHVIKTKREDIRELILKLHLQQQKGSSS
The class given is functional.

Test [2] has as its target T2, Sentrin-specific protease 8 (Homo sapiens, UniProt Q96LD8).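 Further: luminescence read-out of SENP8 inhibition, dose-response confirmation following an ultra-high-throughput screen.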
T2 sequence (Q96LD8 whole entry): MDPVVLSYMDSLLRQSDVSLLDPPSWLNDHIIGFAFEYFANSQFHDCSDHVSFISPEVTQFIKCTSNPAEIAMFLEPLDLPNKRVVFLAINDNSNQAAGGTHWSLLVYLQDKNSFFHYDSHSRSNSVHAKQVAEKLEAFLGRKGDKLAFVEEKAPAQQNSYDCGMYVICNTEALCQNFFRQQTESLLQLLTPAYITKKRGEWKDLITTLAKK
In kind it is functional.

Another test has as its target Caspase-7 (Homo sapiens, UniProt P55210). The test can be described thus: human caspase-7 inhibitors, dose response, selectivity assay for caspase-6 inhibitor project, biochemical, DEVD-R110 fluorescence, cherry-pick (AID 743295). In kind it is […].
Another test concerns the target Mu-type opioid receptor (Homo sapiens, UniProt P35372). Nature of the test: Counterscreen for agonists of heterodimerization of the mu 1 (OPRM1) and delta 1 (OPRD1) opioid receptors: Luminescence-based cell-based high throughput dose response assay to identify agonists of OPRM1 homodimerization. In kind it is functional.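 Further: U2OS cells expressing OPRM1 and beta-arrestin as split beta-galactosidase partners.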
Another test concerns the target T3, Galanin receptor type 3 (Homo sapiens, UniProt O60755).
T3 sequence (O60755 whole entry): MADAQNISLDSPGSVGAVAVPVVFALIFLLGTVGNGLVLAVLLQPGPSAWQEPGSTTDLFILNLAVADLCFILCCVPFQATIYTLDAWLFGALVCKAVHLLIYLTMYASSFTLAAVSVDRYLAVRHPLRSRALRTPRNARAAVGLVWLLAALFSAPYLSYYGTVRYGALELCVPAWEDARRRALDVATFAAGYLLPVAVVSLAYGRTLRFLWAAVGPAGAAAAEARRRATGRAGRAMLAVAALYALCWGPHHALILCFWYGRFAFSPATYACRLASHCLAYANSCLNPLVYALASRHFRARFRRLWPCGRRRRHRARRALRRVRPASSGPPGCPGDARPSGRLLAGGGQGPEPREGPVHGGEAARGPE
The test can be described thus: Fluorescence-based cell-based primary high throughput dose response assay to identify antagonists of the Galanin Receptor 3 (GalR3). In kind it is functional.

The target of test [3] is T4, Tyrosine-protein phosphatase non-receptor type 7 (Homo sapiens, UniProt P35236).
T4 sequence (P35236 whole entry): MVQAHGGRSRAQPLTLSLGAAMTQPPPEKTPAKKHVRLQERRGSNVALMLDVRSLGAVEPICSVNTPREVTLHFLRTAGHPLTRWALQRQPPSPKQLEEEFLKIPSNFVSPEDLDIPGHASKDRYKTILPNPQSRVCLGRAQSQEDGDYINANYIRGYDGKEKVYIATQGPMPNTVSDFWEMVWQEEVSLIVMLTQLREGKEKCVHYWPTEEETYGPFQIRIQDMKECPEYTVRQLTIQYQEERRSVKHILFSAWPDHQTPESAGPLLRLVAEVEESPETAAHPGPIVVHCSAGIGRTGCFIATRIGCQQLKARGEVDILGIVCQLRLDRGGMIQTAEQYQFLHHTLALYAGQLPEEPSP
In kind it is functional.

For a further test, the system named is BJ. The test can be described thus: cells. The class given is functional, cell-based. As to conditions: Homo sapiens.
For test [4], the target named is T5, Mannose-6-phosphate isomerase (Homo sapiens, UniProt P34949).
T5 sequence (P34949 whole entry): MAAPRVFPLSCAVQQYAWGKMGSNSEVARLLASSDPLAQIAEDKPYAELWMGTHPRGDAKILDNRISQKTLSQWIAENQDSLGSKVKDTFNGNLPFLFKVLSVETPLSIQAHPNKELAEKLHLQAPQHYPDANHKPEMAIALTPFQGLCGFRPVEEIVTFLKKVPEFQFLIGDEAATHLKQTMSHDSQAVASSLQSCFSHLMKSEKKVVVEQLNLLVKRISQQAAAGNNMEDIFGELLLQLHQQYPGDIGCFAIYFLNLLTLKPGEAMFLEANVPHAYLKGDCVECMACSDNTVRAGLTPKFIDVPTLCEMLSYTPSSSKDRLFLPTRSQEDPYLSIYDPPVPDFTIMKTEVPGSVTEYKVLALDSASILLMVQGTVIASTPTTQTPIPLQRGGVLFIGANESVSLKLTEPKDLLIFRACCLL
Nature of the test: human PMI inhibitors, high substrate, primary screen, biochemical, fluorescence intensity, high mannose 6-phosphate (AID 1220).

Test [5] addresses Lysine-specific demethylase 4A (Homo sapiens, UniProt O75164). The test can be described thus: JMJD2A histone demethylase inhibitors, dose response, selectivity assay for GASC-1 inhibitor project, biochemical, DELFIA europium, cherry-picked samples (AID 488840).
The next test can be described thus: cells. In kind it is functional.

Calls of active or inactive are those of the source.

Lysine-specific demethylase 4A, sequence (O75164 whole entry): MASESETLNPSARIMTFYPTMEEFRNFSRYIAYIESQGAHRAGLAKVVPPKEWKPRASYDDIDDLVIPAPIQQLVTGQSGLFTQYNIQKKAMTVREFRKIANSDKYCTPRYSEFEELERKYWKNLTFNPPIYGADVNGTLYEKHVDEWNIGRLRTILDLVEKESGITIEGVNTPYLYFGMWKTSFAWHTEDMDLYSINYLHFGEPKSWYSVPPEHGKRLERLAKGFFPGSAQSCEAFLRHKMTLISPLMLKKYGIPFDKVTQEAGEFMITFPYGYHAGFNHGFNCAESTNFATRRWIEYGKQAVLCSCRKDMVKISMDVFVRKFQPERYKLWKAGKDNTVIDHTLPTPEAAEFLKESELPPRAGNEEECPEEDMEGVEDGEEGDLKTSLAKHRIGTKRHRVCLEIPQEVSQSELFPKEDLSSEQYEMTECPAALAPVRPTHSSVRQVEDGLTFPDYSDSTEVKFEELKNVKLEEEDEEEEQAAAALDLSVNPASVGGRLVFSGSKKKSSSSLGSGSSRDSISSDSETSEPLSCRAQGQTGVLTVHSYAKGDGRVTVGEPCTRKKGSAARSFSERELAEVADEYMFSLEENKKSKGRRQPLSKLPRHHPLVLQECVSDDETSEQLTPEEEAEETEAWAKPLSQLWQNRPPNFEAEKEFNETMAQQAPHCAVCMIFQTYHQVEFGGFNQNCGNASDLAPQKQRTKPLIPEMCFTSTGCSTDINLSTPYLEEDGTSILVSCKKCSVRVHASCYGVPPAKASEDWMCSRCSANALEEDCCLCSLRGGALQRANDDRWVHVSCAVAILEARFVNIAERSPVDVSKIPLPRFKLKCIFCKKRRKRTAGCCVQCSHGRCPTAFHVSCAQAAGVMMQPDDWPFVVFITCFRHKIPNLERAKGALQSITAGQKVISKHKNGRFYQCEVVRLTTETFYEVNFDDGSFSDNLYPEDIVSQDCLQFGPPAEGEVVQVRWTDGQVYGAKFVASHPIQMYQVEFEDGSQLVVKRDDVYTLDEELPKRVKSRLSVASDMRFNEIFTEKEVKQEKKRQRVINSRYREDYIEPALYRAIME
Mu-type opioid receptor, sequence (P35372 whole entry): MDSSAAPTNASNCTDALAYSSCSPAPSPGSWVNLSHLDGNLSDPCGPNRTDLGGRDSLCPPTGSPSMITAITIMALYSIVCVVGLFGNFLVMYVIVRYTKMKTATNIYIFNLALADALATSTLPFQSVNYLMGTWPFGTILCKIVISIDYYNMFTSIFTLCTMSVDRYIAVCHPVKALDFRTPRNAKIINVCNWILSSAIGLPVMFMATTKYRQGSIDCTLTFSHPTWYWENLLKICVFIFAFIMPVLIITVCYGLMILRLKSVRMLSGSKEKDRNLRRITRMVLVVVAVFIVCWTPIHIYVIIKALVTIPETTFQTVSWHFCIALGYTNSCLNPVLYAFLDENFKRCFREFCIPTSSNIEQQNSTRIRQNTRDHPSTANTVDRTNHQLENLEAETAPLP
Caspase-7, sequence (P55210 24-198 limits assumed): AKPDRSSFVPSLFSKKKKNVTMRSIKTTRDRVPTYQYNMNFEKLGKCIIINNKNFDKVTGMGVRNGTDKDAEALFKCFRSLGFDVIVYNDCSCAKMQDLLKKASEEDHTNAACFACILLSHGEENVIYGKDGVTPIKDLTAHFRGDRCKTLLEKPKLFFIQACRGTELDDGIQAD
Caspase-7, sequence (P55210 207-303 limits assumed): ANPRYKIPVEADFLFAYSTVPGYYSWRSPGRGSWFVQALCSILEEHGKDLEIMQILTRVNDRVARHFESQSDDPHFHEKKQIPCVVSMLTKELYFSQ

For the compound `Oc1nc(Nc2ccccc2Cl)cc2ccccc12`, the half-maximal inhibitory concentration (IC50) is 4.7 µM (active) in [1] and 4.23 µM (active) in test [2]. On Caspase-7, the AC50 was 12.2 µM (active).
In the case of `O=C1C=C(c2c(O)ccc3ccccc23)c2ccccc2C1=O`, at Mu-type opioid receptor, the EC50 was > 92.4 µM (inactive). For the same compound, the half-inhibitory concentration (IC50) on Galanin receptor type 3 is > 3.32 µM (active).
Regarding `Cc1nc2c(=O)n(C)c(=O)nc-2n(C)n1`, the IC50 in test [3] is < 1.24 µM (active); in test [4], 6.09 µM (active); in the test “cells”, 2.27 µM (active). For the same compound, in the test on BJ, the EC50 is 5.69 µM (active). In [5], the AC50 was 1.78 µM (active).
